Source: ChEMBL document CHEMBL1201862, “PubChem BioAssay data set” (2004)
Active and inactive are the calls of the source.

Tests used:
[1] = target: Luciferin 4-monooxygenase (Photinus pyralis, UniProt P08659); experiment: inhibition of purified Photinus pyralis luciferase – biochemical, luminescence, dose response (AID 1891)
[2] = Luminescence Cell-Based Dose Confirmation HTS to Identify Inhibitors of Platelet Dense Granule Release. [Related pubchem assays: 1663 (Primary HTS), 1678 (Summary of Project)]; assay type: functional
[3] = A549 cell cytotoxicity, dose response, cytotoxicity control, plate reader, cherry-pick, antagonist series (AID 743412); assay type: functional, cell-based
[4] = toxicity toward HepG2 liver cells – cell-based, plate reader, cherry-pick, antagonist series, cytotoxicity control, dose response (AID 743416); assay type: functional
[5] = blockers of bursicon-stimulated LGR2 cAMP reporter – cell-based, HEK293, CRE-luciferase reporter, cherry pick, set 2, dose response (AID 743343); assay type: functional;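 further: transfected cells were stimulated with diluted bursicon conditioned medium after compound addition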
[6] = blockade of melanocortin 4 receptor signaling – cell-based, plate reader, cherry pick, counter-screen for LGR2 antagonist project, dose response (AID 743444); assay type: functional;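 further: transfected HEK 293 cells stimulated with alpha-MSH peptide; potency of inhibitors of the alpha-MSH evoked signal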
[7] = viability loss in HEK293 cells – cell-based, plate reader, cherry-picked samples, cytotoxicity control, dose response (AID 743446); assay type: functional
HEK293 [8] = experiment: inhibition of NOD1-driven NF-kB reporter – cell-based, luminescence, uHTS, primary screen (AID 1578); assay type: functional; details: Homo sapiens
HEK293 [9] = experiment: cells; assay type: functional, cell-based; details: Homo sapiens
HEK293 [10] = experiment: cells; assay type: functional, cell-based; details: Homo sapiens; remark: listed apart in the source
HEK293 [11] = experiment: NOD2 signaling inhibitors in MDP-stimulated cells, cell-based, uHTS, luminescence (AID 2001); assay type: functional; details: Homo sapiens
Tumor necrosis factor = Tumor necrosis factor (Homo sapiens, UniProt P01375); experiment: analog potency on TNFa NF-kB signaling – cell-based, revised, SAR follow-up (AID 2337); assay type: functional
[12] = target: T1, Nucleotide-binding oligomerization domain-containing protein 1 (Homo sapiens, UniProt Q9Y239); experiment: blockers of NOD1 pathway activity – revised, SAR follow-up (AID 2333); assay type: functional
T1 sequence (Q9Y239 whole entry): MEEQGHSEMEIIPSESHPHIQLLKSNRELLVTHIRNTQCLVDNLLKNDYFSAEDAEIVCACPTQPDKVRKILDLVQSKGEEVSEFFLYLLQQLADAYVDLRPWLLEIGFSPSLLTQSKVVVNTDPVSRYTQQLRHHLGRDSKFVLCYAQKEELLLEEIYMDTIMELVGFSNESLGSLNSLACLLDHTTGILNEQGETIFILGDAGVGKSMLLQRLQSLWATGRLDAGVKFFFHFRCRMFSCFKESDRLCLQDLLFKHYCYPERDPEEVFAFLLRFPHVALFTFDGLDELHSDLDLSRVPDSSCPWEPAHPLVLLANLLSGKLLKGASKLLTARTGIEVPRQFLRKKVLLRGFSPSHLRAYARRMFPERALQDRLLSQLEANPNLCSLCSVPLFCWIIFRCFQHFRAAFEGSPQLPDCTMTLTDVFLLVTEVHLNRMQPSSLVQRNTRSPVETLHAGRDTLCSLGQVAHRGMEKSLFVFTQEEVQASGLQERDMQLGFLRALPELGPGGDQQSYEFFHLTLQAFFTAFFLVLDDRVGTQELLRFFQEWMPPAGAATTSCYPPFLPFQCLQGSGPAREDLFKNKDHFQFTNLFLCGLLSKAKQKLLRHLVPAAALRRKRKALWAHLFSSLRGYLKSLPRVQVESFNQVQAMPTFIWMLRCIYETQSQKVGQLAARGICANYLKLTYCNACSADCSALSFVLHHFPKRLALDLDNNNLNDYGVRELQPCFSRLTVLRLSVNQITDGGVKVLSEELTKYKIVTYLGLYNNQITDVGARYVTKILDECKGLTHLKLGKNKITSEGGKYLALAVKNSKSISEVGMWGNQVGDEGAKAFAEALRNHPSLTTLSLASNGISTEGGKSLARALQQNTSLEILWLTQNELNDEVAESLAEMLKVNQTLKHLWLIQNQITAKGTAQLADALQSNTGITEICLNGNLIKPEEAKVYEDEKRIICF

INS1 = experiment: INS-1E survival protection against cytokine death – cell-based, luminescence, retest, dose response (AID 449756); assay type: functional; details: Rattus norvegicus;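 further: cell death triggered by IL-1 beta plus TNF-alpha plus IFN-gamma mixture; protective hits raise ATP signal compared with cytokine alone wells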
Galanin receptor type 3 = Galanin receptor type 3 (Homo sapiens, UniProt O60755); experiment: Fluorescence-based cell-based primary high throughput dose response assay to identify antagonists of the Galanin Receptor 3 (GalR3).; assay type: functional
cells = assay type: functional, cell-based; details: HEK-CNG
[13] = target: T2, COUP transcription factor 2 (Homo sapiens, UniProt P24468); experiment: Luminescence-based cell-based high throughput dose response assay to identify inhibitors of COUP-TFII (NR2F2).; assay type: functional;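 further: HEK293 cells transiently cotransfected with COUP-TFII expression vector and reporter; luciferase reporter luminescence driven by COUP-TFII from the pX2-168 reporter plasmid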
T2 sequence (P24468 whole entry): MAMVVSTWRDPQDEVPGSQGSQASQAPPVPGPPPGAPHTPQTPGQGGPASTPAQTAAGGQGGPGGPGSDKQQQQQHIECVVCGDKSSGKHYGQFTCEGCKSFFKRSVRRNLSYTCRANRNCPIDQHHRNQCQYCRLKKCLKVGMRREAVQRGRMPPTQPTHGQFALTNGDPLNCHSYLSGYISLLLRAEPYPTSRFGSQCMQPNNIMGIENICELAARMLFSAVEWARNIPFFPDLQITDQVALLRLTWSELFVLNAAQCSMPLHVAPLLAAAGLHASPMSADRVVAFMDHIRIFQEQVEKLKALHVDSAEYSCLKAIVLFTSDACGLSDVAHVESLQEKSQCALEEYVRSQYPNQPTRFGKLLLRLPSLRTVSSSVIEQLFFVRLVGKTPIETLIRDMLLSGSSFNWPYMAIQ

HEK293 [14] = experiment: cells; details: Homo sapiens
[15] = target: T3, RNA-binding protein pos-1 (Caenorhabditis elegans, UniProt G5EF15); experiment: disruptors of C. elegans POS-1 RNA interaction – biochemical, fluorescence polarization, dose response (AID 1964);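 further: purified POS-1 fused to maltose binding protein made in E. coli; potency of compounds blocking POS-1 binding to fluorescent RNA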
T3 sequence (G5EF15 whole entry): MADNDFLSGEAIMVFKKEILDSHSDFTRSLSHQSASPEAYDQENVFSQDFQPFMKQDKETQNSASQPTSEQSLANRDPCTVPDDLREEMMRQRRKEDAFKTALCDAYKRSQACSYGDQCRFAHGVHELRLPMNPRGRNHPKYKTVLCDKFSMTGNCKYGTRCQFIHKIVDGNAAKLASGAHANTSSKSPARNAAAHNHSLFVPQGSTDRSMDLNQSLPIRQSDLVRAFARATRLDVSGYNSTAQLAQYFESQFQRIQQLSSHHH

[16] = target: T4, Zinc finger protein mex-5 (Caenorhabditis elegans, UniProt Q9XUB2); experiment: potency of MEX-5 RNA-binding blockers – biochemical, C. elegans, fluorescence polarization, dose response (AID 1960)
T4 sequence (Q9XUB2 whole entry): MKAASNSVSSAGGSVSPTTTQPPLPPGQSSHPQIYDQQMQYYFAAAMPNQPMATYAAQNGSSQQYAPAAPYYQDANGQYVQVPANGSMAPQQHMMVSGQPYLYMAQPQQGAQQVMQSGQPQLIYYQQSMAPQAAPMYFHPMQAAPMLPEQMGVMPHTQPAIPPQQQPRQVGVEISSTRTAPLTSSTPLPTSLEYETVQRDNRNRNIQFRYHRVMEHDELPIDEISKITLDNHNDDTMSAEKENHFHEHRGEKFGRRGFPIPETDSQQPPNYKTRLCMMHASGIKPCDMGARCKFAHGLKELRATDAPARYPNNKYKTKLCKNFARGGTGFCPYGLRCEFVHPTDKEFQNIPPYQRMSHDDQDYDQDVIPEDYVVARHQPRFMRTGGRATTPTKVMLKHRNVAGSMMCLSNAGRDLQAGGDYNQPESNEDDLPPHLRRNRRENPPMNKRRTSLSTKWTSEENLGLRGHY

[17] = target: T5, Replicative DNA helicase DnaB (Mycobacterium tuberculosis, UniProt P9WMR3); experiment: DnaB intein splicing inhibitors, dose response, biochemical, cell-free fluorescence (AID 449749); assay type: functional
T5 sequence (P9WMR3 whole entry): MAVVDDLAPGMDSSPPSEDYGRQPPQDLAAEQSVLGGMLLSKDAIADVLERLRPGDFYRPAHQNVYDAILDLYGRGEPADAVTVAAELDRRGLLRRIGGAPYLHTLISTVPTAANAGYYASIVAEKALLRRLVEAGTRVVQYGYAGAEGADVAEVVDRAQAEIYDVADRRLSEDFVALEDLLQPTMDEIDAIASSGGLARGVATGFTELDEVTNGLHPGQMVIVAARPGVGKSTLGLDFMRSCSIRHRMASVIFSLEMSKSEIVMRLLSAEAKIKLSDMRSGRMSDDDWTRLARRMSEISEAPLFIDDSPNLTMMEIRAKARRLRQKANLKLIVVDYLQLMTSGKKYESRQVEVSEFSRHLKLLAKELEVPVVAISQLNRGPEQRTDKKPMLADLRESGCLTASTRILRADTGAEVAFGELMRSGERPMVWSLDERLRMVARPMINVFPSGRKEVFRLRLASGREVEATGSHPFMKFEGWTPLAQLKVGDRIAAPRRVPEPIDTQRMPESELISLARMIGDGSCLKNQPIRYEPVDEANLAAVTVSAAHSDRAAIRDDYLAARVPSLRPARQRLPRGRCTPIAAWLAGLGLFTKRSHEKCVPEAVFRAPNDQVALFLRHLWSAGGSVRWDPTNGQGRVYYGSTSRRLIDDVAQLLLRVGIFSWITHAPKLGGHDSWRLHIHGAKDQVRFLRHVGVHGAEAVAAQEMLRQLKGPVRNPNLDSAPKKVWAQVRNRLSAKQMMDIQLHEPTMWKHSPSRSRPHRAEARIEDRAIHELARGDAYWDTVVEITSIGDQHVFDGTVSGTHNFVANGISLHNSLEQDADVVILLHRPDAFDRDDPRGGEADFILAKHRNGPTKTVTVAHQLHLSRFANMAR

Protein RecA = target: T6, Protein RecA (Mycobacterium tuberculosis, UniProt P9WHJ3); experiment: Fluorescence Cell-Free Homogeneous Dose Retest to Identify Inhibitors of RecA-Intein Splicing Activity. [Related pubchem assays (depositor defined):AID2097, AID2223, AID489010, AID492950]; assay type: functional
T6 sequence (P9WHJ3 whole entry): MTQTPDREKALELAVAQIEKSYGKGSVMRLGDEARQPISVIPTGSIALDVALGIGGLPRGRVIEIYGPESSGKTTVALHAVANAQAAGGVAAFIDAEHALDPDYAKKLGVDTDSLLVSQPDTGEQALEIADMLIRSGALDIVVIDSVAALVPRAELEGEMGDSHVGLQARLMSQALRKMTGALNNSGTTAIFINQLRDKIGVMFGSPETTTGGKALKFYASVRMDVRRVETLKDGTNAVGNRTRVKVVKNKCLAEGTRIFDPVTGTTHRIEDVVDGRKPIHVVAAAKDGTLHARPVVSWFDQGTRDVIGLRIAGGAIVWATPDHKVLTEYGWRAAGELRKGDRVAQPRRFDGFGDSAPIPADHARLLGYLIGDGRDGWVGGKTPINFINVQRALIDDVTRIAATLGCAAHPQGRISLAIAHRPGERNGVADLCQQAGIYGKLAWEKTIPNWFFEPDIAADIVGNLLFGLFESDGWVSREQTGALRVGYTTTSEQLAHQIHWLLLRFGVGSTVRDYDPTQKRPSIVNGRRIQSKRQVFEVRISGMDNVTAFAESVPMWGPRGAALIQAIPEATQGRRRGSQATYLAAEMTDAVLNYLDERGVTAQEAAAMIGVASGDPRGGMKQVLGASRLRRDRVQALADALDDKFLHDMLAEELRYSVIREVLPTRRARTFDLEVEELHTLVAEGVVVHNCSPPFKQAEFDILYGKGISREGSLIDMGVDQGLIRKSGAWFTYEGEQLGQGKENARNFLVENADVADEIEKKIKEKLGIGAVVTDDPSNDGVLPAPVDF

[18] = target: Histone-lysine N-methyltransferase NSD2 (Homo sapiens, UniProt O96028); assay type: biochemical
Histone-lysine N-methyltransferase NSD2, sequence (O96028 whole entry): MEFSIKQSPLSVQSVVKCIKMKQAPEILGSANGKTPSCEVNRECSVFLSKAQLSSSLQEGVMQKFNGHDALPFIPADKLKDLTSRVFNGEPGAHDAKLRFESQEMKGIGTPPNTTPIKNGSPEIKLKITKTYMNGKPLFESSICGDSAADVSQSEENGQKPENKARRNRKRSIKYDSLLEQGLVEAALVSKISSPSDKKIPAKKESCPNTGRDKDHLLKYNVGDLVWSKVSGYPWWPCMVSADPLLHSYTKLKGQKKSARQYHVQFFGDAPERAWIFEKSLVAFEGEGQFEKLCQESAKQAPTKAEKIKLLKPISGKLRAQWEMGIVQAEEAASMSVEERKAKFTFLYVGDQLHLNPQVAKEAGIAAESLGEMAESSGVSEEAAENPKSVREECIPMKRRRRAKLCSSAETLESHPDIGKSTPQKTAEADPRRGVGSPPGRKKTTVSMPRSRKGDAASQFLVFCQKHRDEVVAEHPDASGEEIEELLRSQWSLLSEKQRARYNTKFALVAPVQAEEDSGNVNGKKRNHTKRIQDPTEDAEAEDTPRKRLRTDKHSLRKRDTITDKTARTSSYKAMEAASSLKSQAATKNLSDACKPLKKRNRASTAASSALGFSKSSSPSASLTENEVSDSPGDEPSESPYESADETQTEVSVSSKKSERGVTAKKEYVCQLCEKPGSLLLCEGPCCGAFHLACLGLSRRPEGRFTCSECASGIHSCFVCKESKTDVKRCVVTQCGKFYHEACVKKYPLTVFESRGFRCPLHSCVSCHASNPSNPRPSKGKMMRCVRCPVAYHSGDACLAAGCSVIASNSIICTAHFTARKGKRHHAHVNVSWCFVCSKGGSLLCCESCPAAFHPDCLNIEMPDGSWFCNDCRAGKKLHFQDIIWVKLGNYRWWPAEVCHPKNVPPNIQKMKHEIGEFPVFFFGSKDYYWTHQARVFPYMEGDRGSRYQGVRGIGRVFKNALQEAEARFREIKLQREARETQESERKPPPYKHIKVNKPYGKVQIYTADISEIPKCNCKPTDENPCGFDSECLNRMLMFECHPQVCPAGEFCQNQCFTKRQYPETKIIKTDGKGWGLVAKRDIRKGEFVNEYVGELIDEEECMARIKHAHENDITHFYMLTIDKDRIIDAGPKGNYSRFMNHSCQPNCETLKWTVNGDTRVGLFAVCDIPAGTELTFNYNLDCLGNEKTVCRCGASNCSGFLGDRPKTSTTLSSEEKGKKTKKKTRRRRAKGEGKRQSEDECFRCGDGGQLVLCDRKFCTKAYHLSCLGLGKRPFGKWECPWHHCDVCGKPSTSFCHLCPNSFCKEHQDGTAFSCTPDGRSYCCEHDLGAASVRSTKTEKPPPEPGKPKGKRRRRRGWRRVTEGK

Tumor necrosis factor, sequence (P01375 whole entry, the tested form may be a part): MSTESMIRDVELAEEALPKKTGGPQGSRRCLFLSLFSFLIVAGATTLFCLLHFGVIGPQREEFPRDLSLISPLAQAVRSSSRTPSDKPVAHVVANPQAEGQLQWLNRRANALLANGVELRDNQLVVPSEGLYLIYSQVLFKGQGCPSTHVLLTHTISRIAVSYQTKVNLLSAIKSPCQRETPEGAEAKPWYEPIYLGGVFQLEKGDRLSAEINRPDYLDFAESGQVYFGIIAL
Galanin receptor type 3, sequence (O60755 whole entry): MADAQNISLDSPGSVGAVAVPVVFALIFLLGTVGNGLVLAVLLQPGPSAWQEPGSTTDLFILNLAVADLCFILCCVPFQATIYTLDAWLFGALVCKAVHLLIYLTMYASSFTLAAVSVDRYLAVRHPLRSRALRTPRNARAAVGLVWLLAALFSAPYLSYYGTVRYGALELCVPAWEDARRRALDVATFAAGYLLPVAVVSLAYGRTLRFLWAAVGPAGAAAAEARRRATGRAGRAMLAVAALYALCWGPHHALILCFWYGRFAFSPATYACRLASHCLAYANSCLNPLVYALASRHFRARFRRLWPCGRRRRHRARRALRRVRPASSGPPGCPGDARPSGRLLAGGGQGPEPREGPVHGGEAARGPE
Luciferin 4-monooxygenase, sequence (P08659 whole entry): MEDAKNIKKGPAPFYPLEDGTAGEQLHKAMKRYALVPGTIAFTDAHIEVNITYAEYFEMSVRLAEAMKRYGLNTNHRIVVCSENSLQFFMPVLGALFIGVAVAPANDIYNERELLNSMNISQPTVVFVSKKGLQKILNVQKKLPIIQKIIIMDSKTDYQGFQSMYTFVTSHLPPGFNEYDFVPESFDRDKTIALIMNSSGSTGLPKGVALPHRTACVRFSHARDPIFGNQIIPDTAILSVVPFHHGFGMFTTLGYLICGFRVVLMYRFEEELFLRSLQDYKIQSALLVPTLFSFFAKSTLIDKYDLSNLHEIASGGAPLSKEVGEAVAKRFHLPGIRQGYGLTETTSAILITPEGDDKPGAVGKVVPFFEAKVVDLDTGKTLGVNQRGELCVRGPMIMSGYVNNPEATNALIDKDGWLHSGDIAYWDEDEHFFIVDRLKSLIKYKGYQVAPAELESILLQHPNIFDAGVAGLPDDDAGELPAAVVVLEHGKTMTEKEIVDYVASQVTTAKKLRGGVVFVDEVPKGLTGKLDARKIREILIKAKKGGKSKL

With `Cc1cccc(NC(=O)c2ccc3c(c2)OCCO3)c1` as the molecule, how does the EC50 [1] read?
The EC50 was 6.2 µM (active).

And the EC50 [2]?
The EC50 was 6.74 µM (active).

What about the AC50 [3] of the same molecule?
Its AC50 is > 52 µM (inactive).

And the AC50 [4]?
Its AC50 is > 52 µM (inactive).

And the AC50 [5]?
The AC50 was 7.92 µM (active).

And the AC50 [6]?
The AC50 was 9.29 µM (active).

And the AC50 [7]?
The AC50 was > 52 µM (inactive).

For `C=CCC1(CC=C)CCCN1C(=O)c1cc(COc2ccc(C)nc2)on1`, which EC50 (HEK293 [8]) is on record?
Its EC50 is 2.7 µM (active).

And the IC50 (HEK293 [9])?
Its IC50 is 4.44 µM (active).

What about the IC50 (HEK293 [10]) of the same molecule?
Its IC50 is 14.1 µM (active).

What about the IC50 (HEK293 [11]) of the same molecule?
The IC50 was 7.3 µM (active).

And the IC50 (Tumor necrosis factor)?
The IC50 was 4.24 µM (active).

What about the IC50 [12] of the same molecule?
The IC50 was 2.67 µM (active).

And the AC50 (INS1)?
Its AC50 is 2.13 µM (active).

What about the IC50 (Galanin receptor type 3) of the same molecule?
Its IC50 is 1.25 µM (active).

What about the EC50 (cells) of the same molecule?
Its EC50 is > 29.9 µM (inactive).

What about the IC50 [13] of the same molecule?
The IC50 was 11.8 µM (inactive).

And the IC50 (HEK293 [14])?
Its IC50 is 19 µM (active).

With `CC1=NN(c2ccc(C(=O)O)c(N)c2)C(=O)C1` as the molecule, how does the EC50 [15] read?
Its EC50 is 85.5 µM (active).

What about the EC50 [16] of the same molecule?
The EC50 was 38.3 µM (active).

What about the AC50 [17] of the same molecule?
The AC50 was 3.01 µM (active).

And the EC50 (Protein RecA)?
The EC50 was 1.98 µM (active).

What about the AC50 [18] of the same molecule?
The AC50 was > 20 µM (inactive).

For `COc1ccc(S(=O)(=O)Nc2ccc3c(c2)CC(=O)N([C@@H](C)CO)C[C@H](C)[C@@H](CN(C)Cc2ccc(Cl)c(Cl)c2)O3)cc1`, which AC50 [3] is on record?
The AC50 was 12.4 µM (active).

What about the AC50 [4] of the same molecule?
The AC50 was 14.3 µM (active).

What about the AC50 [5] of the same molecule?
The AC50 was 20.5 µM (active).

And the AC50 [6]?
The AC50 was 15.9 µM (active).

What about the AC50 [7] of the same molecule?
Its AC50 is 15.7 µM (active).
